Data reported in patent publication US9951065B2 (Gilead Sciences, Inc., priority 2015, dated 2018).

Target: T1, IDO1 (Homo sapiens, UniProt P14902)
T1 construct: HeLa cells were treated with a test compound in the presence of IFNγ, which induces IDO1 expression; host or cells: H1-HeLa cells, IDO1 induced with IFNγ
Assay: Cell-based (HeLa) assay for measurement of IDO1 inhibition (kynurenine levels in supernatant after IFNγ induction)
Details: HeLa cells, geometric mean of a minimum of four determinations
Procedure, shortened: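 HeLa cells, 1,250 per well, treated with compound (0.5% DMSO final) plus IFNγ to induce IDO1, for 48 h. Supernatant kynurenine measured by TCA hydrolysis at 60 °C, then p-dimethylaminobenzaldehyde, absorbance 480 nm. EC50 from a four-parameter fit normalized to −/+IFNγ controls; geometric mean of at least four runs.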

[1] = IFNγ-induced IDO1, kynurenine in supernatant after 48 hour incubation
[2] = IFNγ-induced IDO1, kynurenine in supernatant, 48 hour incubation

T1 sequence (P14902 whole entry): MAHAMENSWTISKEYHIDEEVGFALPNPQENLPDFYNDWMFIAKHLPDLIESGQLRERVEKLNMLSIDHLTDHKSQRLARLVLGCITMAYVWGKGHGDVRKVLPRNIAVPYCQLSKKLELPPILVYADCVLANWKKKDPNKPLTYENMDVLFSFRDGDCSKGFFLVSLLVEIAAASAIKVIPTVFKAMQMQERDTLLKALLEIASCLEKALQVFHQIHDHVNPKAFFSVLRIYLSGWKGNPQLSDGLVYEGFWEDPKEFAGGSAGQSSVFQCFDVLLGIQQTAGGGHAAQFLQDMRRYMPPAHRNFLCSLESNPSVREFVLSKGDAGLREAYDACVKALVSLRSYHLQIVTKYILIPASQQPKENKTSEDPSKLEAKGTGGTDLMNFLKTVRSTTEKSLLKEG

Compound | EC50 [1] [nM] | EC50 [2] [nM]
COc1ccc(CNCCc2nc3nccc(/C(=N/O)Nc4ccc(F)c(Cl)c4)c3[nH]2)c(OC)c1 [Example 274, N-(3-chloro-4-fluorophenyl)-2-(2-((2,4-dimethoxybenzyl)amino)ethyl)-N′-hydroxy-1H-imidazo[4,5-b]pyridine-7-carboximidamide] | 1970 | –
Nc1nc2nccc(/C(=N/O)Nc3ccc(F)c(Cl)c3)c2[nH]1 [Example 153, 2-Amino-N-(3-chloro-4-fluorophenyl)-N′-hydroxy-1H-imidazo[4,5-b]pyridine-7-carboximidamide] | 897 | –
CC(C)NCc1nc2c(F)c(F)cc(/C(=N/O)Nc3cccc(Cl)c3)c2[nH]1 [Example 27, N-(3-Chlorophenyl)-4,5-difluoro-N′-hydroxy-2-((isopropylamino)methyl)-1H-benzo[d]imidazole-7-carboximidamide] | 839 | –
O/N=C(\Nc1ccc(F)c(Cl)c1)c1ccnc2nc(NC3CC3)[nH]c12 [Example 154, N-(3-Chloro-4-fluorophenyl)-2-(cyclopropylamino)-N′-hydroxy-1H-imidazo[4,5-b]pyridine-7-carboximidamide] | 529 | –

Second part, the molecule after the results:

EC50 [1] [nM] | EC50 [2] [nM] | Compound
675 | – | O/N=C(\Nc1ccc(F)c(Cl)c1)c1ccnc2nc(CCN3CCC(Cc4ccccc4)CC3)[nH]c12 [Example 275, 2-(2-(4-benzylpiperidin-1-yl)ethyl)-N-(3-chloro-4-fluorophenyl),N′-hydroxy-1H-imidazo[4,5-b]pyridine-7-carboximidamide]
– | 681 | O/N=C(\Nc1cccc(Br)c1)c1ccnc2nc(NCCN3CCOCC3)[nH]c12 [Example 306, N-(3-bromophenyl)-N′-hydroxy-2-((2-morpholinoethyl)amino)-1H-imidazo[4,5-b]pyridine-7-carboximidamide]
– | 1020 | O/N=C(\Nc1ccc(F)c(Cl)c1)c1cc(F)c(F)c2nc(N[C@@H]3CCCCNC3)[nH]c12 [Example 463, (R)-2-(azepan-3-ylamino)-N-(3-chloro-4-fluorophenyl)-4,5-difluoro-N′-hydroxy-1H-benzo[d]imidazole-7-carboximidamide]
– | 6120 | CC(=O)NCCNc1nc2c(F)c(F)cc(/C(=N/O)Nc3ccc(F)c(Cl)c3)c2[nH]1 [Example 334, N-(2-((7-(N-(3-chloro-4-fluorophenyl)-N′-hydroxycarbamimidoyl)-4,5-difluoro-1H-benzo[d]imidazol-2-yl)amino)ethyl)acetamide]
– | 1780 | N#CCCNc1nc2c(F)c(F)cc(/C(=N/O)Nc3ccc(F)c(Cl)c3)c2[nH]1 [Example 340, N-(3-chloro-4-fluorophenyl)-2-((2-cyanoethyl)amino)-4,5-difluoro-N′-hydroxy-1H-benzo[d]imidazole-7-carboximidamide]
